Reference: patent US20250179033A1 (priority 2021, published 2025)
Where two headings read alike, the source gives them in different places.

How the values were obtained:
[1] = Kinetic solubility; type: physicochemical; conditions: Universal Aqueous buffer pH 7.4
Experimental: Kinetic Solubility: 396 μL of Universal Aqueous buffer (pH 7.4) was added to 4 μL of a 50 mM DMSO stock solution of each compound. Wells were agitated for 4 hours at 20° C. and then filtered. The compound was then diluted to serial concentrations with DMSO, followed by serial dilutions with ACN:H2O (1:1) prior to liquid chromatography-mass spectroscopy (LCMS) analysis. The calculated concentration (μM) of soluble compound was determined in reference to a standard curve.

[2] = Human liver microsome stability; type: in vitro ADME
Experimental: Mouse/Human liver microsome stability: A liver microsome solution (197.5 μL, 1.27 mg/ml protein concentration) (Sekisui Xenotech, Kansas City, KS) was aliquoted into 1.1 ml tubes, to which 2.5 μL of positive control and compound stock solutions (100 μM in DMSO) were added. The tubes were vortexed gently, pre-incubated for 5 min at 37° C., then 50 μL of 5 mM NADPH or LM buffer (no NADPH buffer) was added into the tubes. For analysis, an aliquot of 15 μL was removed from each tube at 0, 5, 15, 30 and 60 min (without-NADPH reaction: 0, 30 and 60 min) and quenched with 300 μL of 25 ng/ml propranolol in acetonitrile. Samples were vigorously vortexed for 1 min and then centrifuged at 4,000 rpm for 15 min at 4° C. 100 μL of supernatant from each sample was transferred to 0.65 ml tubes for LCMS analysis. The amount of parent compound was determined on the basis of the peak area ratio (compound area to IS area) for each time point. Clearance rates were calculated by the equation: […]

[3] = system: HIV-1 IIIB (wild-type); assay: HIV inhibition assay in TZM-bl cells, wild-type; type: cell-based; conditions: Human immunodeficiency virus 1, IIIB; for IC50: read-out: IC50 (TZM, WT)
Method in brief: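 TZM-bl cells with 15 μg/mL DEAE-dextran were infected with H9-grown HIV-1 IIIB, wild-type or A17 (Y181C/K103N), in the presence of compound (0.005% or 0.05% DMSO) for 48 h at 37 °C. Luciferase RLU was read after lysis. Toxicity was measured in parallel by CellTiter-Blue fluorescence.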

[4] = Toxicity assay in TZM-bl cells; type: cell-based; conditions: human
Method in brief: (§1)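 TZM-bl cells (2×10^5/mL, with DEAE-dextran) were exposed to serially diluted compound plus virus at a constant 0.005% or 0.05% DMSO for 48 h at 37 °C. CellTiter-Blue was added at 46 h and incubated 2 h. Viability was read as fluorescence at 560/590 nm after stopping with 1.5% SDS.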

[5] = system: TZM-bl cells; assay: Toxicity assay in TZM-bl cells; type: cell-based
Method in brief: as §1

[6] = molecular target: T1, HIV I reverse transcriptase (Human immunodeficiency virus type 1 group M subtype B, UniProt P03366); assay: Reverse transcriptase inhibition assay (Roche kit, ELISA); type: biochemical
T1 construct: purchased Roche
Experimental: NNRTI assay methods: Inhibition of HIV I reverse transcriptase was assessed via a kit from Roche (Indianapolis-Marion County, Indiana, United States of America) using the manufacture's protocol (500 μM final reverse transcriptase reaction amount). […] DMSO concentrations were kept the same for all dilutions used within an assay (0.05%). Final compound concentrations ranged from 5000 nM-0.05 nM with 2-fold serial dilutions. 96-well plates were set up with 20 μL compound dilution, 20 μL reverse transcriptase, and 20 μL template/nucleotides and incubated at 37° C. 5% CO2 for 1 hr in a reaction plate. 50 μL of each reaction was then transferred to a streptavidin conjugated 96-well plate and an ELISA assay was run based on manufacture's protocol. All compounds were tested in sextuplicate, with single wells of efavirenz dilutions on each plate.

[7] = Table 3, TZM-bl, ± SEM, minimum 6 replicates

Compound | solubility at 4 h ([1]; 20 °C, kinetic from dmso stock) [µM] | Human liver microsomes, stability in words [2] | half-life at 1 μM ([2]; human, liver microsomes) [min] | microsomal CLint at 1 μM ([2]; human, liver microsomes) [µL/min/mg] | IC50 [3, 7] [nM] | IC50 ([3]; Table 4, TZM-bl) [nM] | EC50 ([3]; text b494, FIG. 2F, read-out: antiviral activity against wildtype, EC50) [nM] | CC50 at 48 h ([4]; Table 4, TZM-bl, read-out: CC50 (TZM)) [µM] | CC50 at 48 h ([4]; text b494, FIG. 2F, read-out: cytotoxicity CC50) [µM] | Qualitative Cell Toxicity within inhibition range ([5]; Table 3, TZM-bl) | Quantitative Cell Toxicity ([5]; Table 3, TZM-bl) [µM] | EC50 [6] [µM] | IC50 [6] [nM] | disparity between the IC50s for in-cell (TZM-bl) and reverse transcriptase HIV I inhibition [6] [fold] | solubility at 4 h [1] [µM] | Human liver microsomes CLint ([2]; human, liver microsomes, 1 μM) [μL/min/mg protein] | CC50 at 48 h [4] [µM] | Qualitative Cell Toxicity within inhibition range [5]
N#C/C=C/c1ccc2c(S(=O)(=O)n3nc(Nc4ccc(C#N)c(Cl)c4)nc3N)cccc2c1 [Compound 20, 4-[[5-amino-1-[[6-[2-cyanovinyl]-1-naphthyl]sulfonyl]-1,2,4-triazol-3-yl]amino]-2-chloro-benzonitrile] | < 0.2 | stable | 53.8 | 25.8 | 0.263 ± 0.05 | 0.309 | 0.22 | 4.95 | 5.35 | None | 4.06 | 4.06 | 1350 | 1000 |  |  |  | 
Nc1nc(Nc2ccc(Cl)cc2)nn1S(=O)(=O)c1ccc2ccccc2c1 [Compound 1, N3-(4-chlorophenyl)-1-(2-naphthylsulfonyl)-1,2,4-triazole-3,5-diamine] |  | protein, stable |  |  | 9.33 ± 2.27 | 9.33 |  |  |  |  |  | 4.84 |  |  | <0.2 | 2.0 | > 1 | None
